Calls of active or inactive are those of the source.
Assay: Inhibition of beta lactamase CTX-M assessed as hydrolysis of beta lactam by spectrometry analysis
For O=C(O)CN1C(=O)O[C@@H](c2ccccc2)C1=O, the Ki was 700 µM.
In the case of c1ccc(COc2cccc(-c3nn[nH]n3)c2)cc1, the Ki is reported as 1000 µM.
For Nc1sc2c(c1-c1nn[nH]n1)CCCC2, the Ki was 3000 µM.
In the case of O=C1C[C@H](S(=O)(=O)O)c2ccccc2C1=O, the Ki is reported as 700 µM.
In the case of O=C1C=C(S(=O)(=O)O)c2ccccc2C1=O, the Ki is reported as 1000 µM.
For O=C(Nc1cccc(-c2nn[nH]n2)c1)[C@H](Sc1ccccc1)c1ccccc1, the Ki was 12 µM.
For Cn1cc(C(=O)Nc2cccc(-c3nn[nH]n3)c2)c2ccccc21, the Ki was 10 µM.

Assay: Inhibition of beta lactamase CTX-M assessed as hydrolysis of beta lactam at 250 uM by spectrometry analysis
With Cc1nc2cc(C(=O)Nc3cccc(-c4nn[nH]n4)c3)ccc2n1-c1ccccc1 the inhibition was “Active”.
With O=C(Nc1cccc(-c2nn[nH]n2)c1)c1csc2c1CCCC2 the inhibition was “Active”.
In the case of CC(=O)Nc1cc(NC(C)=O)cc(C(=O)Nc2cccc(-c3nn[nH]n3)c2)c1, the inhibition is reported as “Active”.
For O=C(Nc1cccc(-c2nn[nH]n2)c1)[C@H](Sc1ccccc1)c1ccccc1, the inhibition was “Active”.
For Cn1cc(C(=O)Nc2cccc(-c3nn[nH]n3)c2)c2ccccc21, the inhibition was “Active”.

Assay: Inhibition of beta lactamase AmpC assessed as hydrolysis of beta lactam by spectrometry analysis
In the case of O=C(O)CN1C(=O)O[C@@H](c2ccccc2)C1=O, the Ki is reported as 3500 µM.

Assay: Inhibition of beta lactamase CTX-M assessed as hydrolysis of beta lactam up to 5 mM by spectrometry analysis
In the case of Cc1ccc(N[C@H](CC(=O)c2ccccc2)C(=O)O)cc1C, the inhibition is reported as “inactive”.
In the case of O=C(O)c1ccccc1N[C@H](C(=O)O)c1ccccc1, the inhibition is reported as “inactive”.
With NS(=O)(=O)c1cccc(C(=O)O)c1 the inhibition was “inactive”.
For O=C(O)[C@H]1CC(=O)N(C2CCCC2)C1, the inhibition was “inactive”.
With O=C(O)[C@@H]1CNC(Cc2ccc(Cl)cc2)=N1 the inhibition was “inactive”.
With CC(=O)c1c(O)c(C(=O)O)c(C)oc1=O the inhibition was “inactive”.
In the case of O=C(O)c1cc(=O)cc2n1CCNC2=O, the inhibition is reported as “inactive”.
With O=C(O)c1cccc(COc2ccc(CO)cc2)c1 the inhibition was “inactive”.
In the case of O=C(O)CSc1nc(O)cc(O)n1, the inhibition is reported as “inactive”.
With CS(=O)(=O)c1cccc(C(=O)O)c1 the inhibition was “inactive”.
For O=C(O)Cc1ccccc1O, the inhibition was “inactive”.
In the case of O=C(O)C[C@H](NO)c1ccccc1, the inhibition is reported as “inactive”.
In the case of O=C1C[C@H](C(=O)O)c2ccccc21, the inhibition is reported as “inactive”.
For CC(=O)Nc1ccc(Sc2ccccc2C(=O)O)c(C(=O)O)c1, the inhibition was “inactive”.
For Cc1ccc(NC(=O)CSc2nnc(CCC(=O)O)c(=O)[nH]2)cc1, the inhibition was “inactive”.
With O=C1C=C(O)[C@@H](C(=O)O)[C@H](c2ccccc2)C1 the inhibition was “inactive”.
With Cc1cc(C(=O)Nc2ccc(CC(=O)O)cc2)c(C)o1 the inhibition was “inactive”.
In the case of O=C(O)c1sc(C(=O)O)c(-c2ccco2)c1-c1ccco1, the inhibition is reported as “inactive”.
For O=C(O)c1cc(=O)c2cc(F)ccc2o1, the inhibition was “inactive”.
With CC(=O)C1=C(O)C(O)N([C@@H](C)C(=O)O)[C@H]1c1ccccc1 (some centres not stated) the inhibition was “inactive”.
In the case of O=C(O)[C@@H]1C[C@@H](C(=O)O)N1, the inhibition is reported as “inactive”.
In the case of Cc1ccc(NC(=O)[C@H]2CCC(=O)N2)c(C)c1, the inhibition is reported as “inactive”.
For O=C(O)[C@@H](Cc1ccco1)P(=O)(O)CN1CCOCC1, the inhibition was “inactive”.
In the case of Cc1ccc(NC(=O)/C=C/C(=O)O)cc1, the inhibition is reported as “inactive”.
In the case of O=C(O)c1cn(S(=O)(=O)c2ccccc2)c2ccccc12, the inhibition is reported as “inactive”.
For O=C(O)C[C@@H](NC(=O)c1ccccc1F)c1ccc2c(c1)OCO2, the inhibition was “inactive”.
For O=C(O)C[C@H](C(=O)NCc1ccccc1)c1ccccc1, the inhibition was “inactive”.
In the case of Cc1cc(C)c2nc(CC(=O)O)[nH]c2c1, the inhibition is reported as “inactive”.
In the case of CC(=O)Nc1nc(C(=O)O)cs1, the inhibition is reported as “inactive”.
With C=C1C(=O)OC=C1C(=O)O the inhibition was “inactive”.
With O=C(O)CC(=O)Nc1ccccc1 the inhibition was “inactive”.
With O=C(CC1=NO[C@H](c2ccccc2O)N1)N1CCCC1 the inhibition was “inactive”.
With CC(=O)NCC(=O)O the inhibition was “inactive”.
For Cc1cc(O)nc(O)c1C(=O)O, the inhibition was “inactive”.
In the case of C[C@@H]1C[C@H](C)CN(S(=O)(=O)c2cccc(C(=O)O)c2)C1, the inhibition is reported as “inactive”.
For CCC(=O)Nc1ccccc1C(=O)C(=O)O, the inhibition was “inactive”.
In the case of CC(C)(C)c1ccc([C@@H](CC(=O)O)NC(=O)c2ccccc2F)cc1, the inhibition is reported as “inactive”.
In the case of O=C(Nc1nncs1)c1ccccc1O, the inhibition is reported as “inactive”.
In the case of C[C@@H](Oc1cc(O)c2c(=O)cc(-c3ccccc3)oc2c1)C(=O)O, the inhibition is reported as “inactive”.
For O=C(O)[C@H]1[C@H](C(=O)NCCO)[C@H]2C=C[C@H]1C2, the inhibition was “inactive”.
With O=C(O)[C@@H]1C(=O)NC[C@H]1c1ccccc1 the inhibition was “inactive”.
For C[C@@H](NC(=O)CNC(=O)CN)C(=O)O, the inhibition was “inactive”.
With O=C(Nc1nncs1)c1ccccc1F the inhibition was “inactive”.
With O=C(O)c1c[nH]c(=O)[nH]c1=O the inhibition was “inactive”.
In the case of O=C(O)c1ccc(Cl)c(N2CCCC2=O)c1, the inhibition is reported as “inactive”.
With Cc1[nH]c(C(=O)O)c(C)c1[C@H](C)O the inhibition was “inactive”.
In the case of Cc1ccoc1C(=O)NCc1occc1C(=O)O, the inhibition is reported as “inactive”.
For O=C(O)c1cnc(O)cc1O, the inhibition was “inactive”.
For Cc1cc(C)cc(N2C[C@@H](C(=O)O)CC2=O)c1, the inhibition was “inactive”.
For O=C1C=CC(=O)C(c2cccc(C(=O)O)c2)=C1, the inhibition was “inactive”.
In the case of O=C(O)c1cccc(OCc2cn3ccccc3n2)c1, the inhibition is reported as “inactive”.
For Cc1oncc1C(=O)O, the inhibition was “inactive”.
With C[C@H](NC(=O)c1ccccc1Cl)C(=O)O the inhibition was “inactive”.
For O=C(O)c1cccc(-c2nc3ccccc3[nH]2)c1, the inhibition was “inactive”.
In the case of O=C(O)[C@@H]1C[C@H]1C(=O)N1CCc2ccccc21, the inhibition is reported as “inactive”.
In the case of O=C(O)c1ccc(=O)oc1, the inhibition is reported as “inactive”.
For O=C1C=CC(=O)[C@@H]2CC=C[C@@H](C(=O)O)[C@H]12, the inhibition was “inactive”.
For Cc1oc(S(=O)(=O)N2CCCCC2)cc1C(=O)O, the inhibition was “inactive”.
With O=C(O)Cn1cnc2ccccc21 the inhibition was “inactive”.
For Cc1ccccc1C(=O)N[C@@H](C)C(=O)O, the inhibition was “inactive”.
For O=C(O)C[C@@H]1C(=O)NC(=S)N1c1ccccc1, the inhibition was “inactive”.
For O=C(O)C1CC(O)CN1 (configuration not stated), the inhibition was “inactive”.
With O=C(O)c1ccc(=O)[nH]n1 the inhibition was “inactive”.
In the case of Cc1ccc(C(=O)NCC(=O)O)s1, the inhibition is reported as “inactive”.
In the case of O=C(O)c1cccc(N2C(=O)c3ccc(Br)cc3C2=O)c1, the inhibition is reported as “inactive”.
In the case of N#Cc1ccsc1NC(=O)c1ccccn1, the inhibition is reported as “inactive”.
For O=C(O)c1cccc(S(=O)(=O)Nc2ccccn2)c1, the inhibition was “inactive”.
In the case of O=C(O)C[C@@H]1NC(=O)[C@H](Cc2ccccc2)NC1=O, the inhibition is reported as “inactive”.
In the case of C[C@H]1Cc2ccccc2N1C(=O)CSc1nnnn1C1CCCC1, the inhibition is reported as “inactive”.
In the case of Cc1ccc(-n2nc(C(N)=O)c(=O)cc2C)cc1, the inhibition is reported as “inactive”.
With O=C(O)Cc1ccc(C(=O)c2cccs2)s1 the inhibition was “inactive”.
With O=C(O)/C=C/c1ccc(O)cc1 the inhibition was “inactive”.
In the case of O=C1NC(=O)[C@H](Nc2ccccc2C(=O)O)S1, the inhibition is reported as “inactive”.
With C[C@H]1CCc2n[nH]c(C(=O)O)c2C1 the inhibition was “inactive”.
With O=C(O)Cc1cc(=O)[nH]c2ccccc12 the inhibition was “inactive”.
For O=C(O)CNC(=O)c1cccc2ccccc12, the inhibition was “inactive”.
For Cc1onc(C(N)=O)c1C(=O)Nc1nccs1, the inhibition was “inactive”.
For O=C(O)c1ccnc([C@@H]2CCCCC2=O)c1, the inhibition was “inactive”.
In the case of O=C(O)/C=C/c1ccc(O)c(O)c1, the inhibition is reported as “inactive”.
In the case of CCCOc1ccc([C@H](CC(=O)O)NC(=O)c2ccc(F)cc2)cc1, the inhibition is reported as “inactive”.
In the case of O=C(O)c1ccccc1C(=O)c1ccc2c(c1)CCC2, the inhibition is reported as “inactive”.
In the case of C=C(CC)N/N=C1\NC(=O)[C@H](CC(=O)O)S1, the inhibition is reported as “inactive”.
In the case of O=C(O)CN1C(=O)c2ccc(F)cc2C1=O, the inhibition is reported as “inactive”.
With O=C(O)c1n[nH]c2c1CCC2 the inhibition was “inactive”.
With O=C(O)c1ccc(Cl)c(N2C(=O)c3ccccc3C2=O)c1 the inhibition was “inactive”.
With CC(=O)Nc1sccc1C(=O)O the inhibition was “inactive”.
With COc1ccc(C(=O)O)cc1S(=O)(=O)N1CCCCCC1 the inhibition was “inactive”.
In the case of O=C(O)c1cccc(S(=O)(=O)Nc2ccccc2O)c1, the inhibition is reported as “inactive”.
With O=C(O)[C@H]1C[C@H](O)CN1Cc1ccccc1 the inhibition was “inactive”.
For O=CNc1ccccc1C(=O)O, the inhibition was “inactive”.
For CC(=O)Nc1ccc(OS(=O)(=O)c2cccc(C(=O)O)c2)cc1, the inhibition was “inactive”.
With CCOC(=O)c1c(C(=O)O)[nH]c(C(=O)OCc2ccccc2)c1C the inhibition was “inactive”.
In the case of Cc1cc(C)cc(NC(=O)N(CCC(=O)O)Cc2ccccc2)c1, the inhibition is reported as “inactive”.
With Cc1cc(C(=O)NCc2oc(C(C)(C)C)cc2C(=O)O)c(C)o1 the inhibition was “inactive”.

Reference: ChEMBL document CHEMBL1212713, “Molecular docking and ligand specificity in fragment-based inhibitor discovery” (Nat Chem Biol, 2009)
